Structures can show the parent of a compound that is named as a salt. Where two headings read alike, the source gives them in different places.
What was measured:
[1] = target: T1, human NTCP (Homo sapiens, UniProt Q14973); experiment: Screening taurocholate uptake assay (96-well, [14C]taurocholate, 10 µM drug)
T1 sequence (Q14973 1-349): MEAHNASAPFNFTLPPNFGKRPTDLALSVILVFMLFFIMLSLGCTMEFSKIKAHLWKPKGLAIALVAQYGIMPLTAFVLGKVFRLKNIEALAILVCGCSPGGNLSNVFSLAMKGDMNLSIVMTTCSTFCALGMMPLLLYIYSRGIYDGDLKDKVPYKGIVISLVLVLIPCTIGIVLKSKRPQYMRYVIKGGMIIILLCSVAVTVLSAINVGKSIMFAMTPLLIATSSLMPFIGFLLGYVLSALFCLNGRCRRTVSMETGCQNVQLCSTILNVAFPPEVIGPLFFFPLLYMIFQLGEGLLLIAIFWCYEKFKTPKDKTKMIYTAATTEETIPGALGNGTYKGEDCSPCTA

[2] = target: T1, human NTCP; experiment: Screening fluorescent competitive Myrcludex B-FITC binding assay (96-well, 10 µM drug)
[3] = Prestwick library screen, taurocholate uptake, 10 µM drug
[4] = ranking score beside the functional and binding assay B-scores of the screen
[5] = Prestwick library screen, Myrcludex B-FITC binding, 10 µM drug
[6] = combined ranking from functional and binding screening assays
[7] = screen, 10 µM drug, taurocholate uptake
[8] = screen, 10 µM drug, Myrcludex B-FITC binding
[9] = Prestwick library screen, 10 µM drug, B-score of taurocholate uptake
[10] = combined ranking from functional and binding assay B-scores
[11] = Prestwick library screen, 10 µM drug, B-score of Myrcludex B-FITC binding

Row | Compound | Ranking score [1, 6] | B-score functional assay [1, 7] | B-score binding assay [2, 8] | B-score functional assay [1, 9] | Ranking score [1, 10] | B-score binding assay [2, 11] | other results
1 | C[C@@H]1CC[C@H]2[C@@H](C)C(=O)O[C@@H]3O[C@@]4(C)CC[C@@H]1[C@]32OO4 [Artemisinin] |  |  |  |  |  |  | B-score functional assay [1, 3]: 0.234; Ranking score [1, 4]: 655.672; B-score binding assay [2, 5]: -0.138
2 | CCCNC(C)C(=O)Nc1c(C)csc1C(=O)OC (stereo not drawn) [Articaine hydrochloride] | 451.414 | -1.04 | 0.267 |  |  |  | 
3 | O=C1O[C@H]([C@@H](O)CO)C(O)=C1O [Ascorbic acid] | 365.334 | -1.672 | 0.271 |  |  |  | 
4 | O=C1C(O)=C([C@H]2CC[C@H](c3ccc(Cl)cc3)CC2)C(=O)c2ccccc21 [Atovaquone] |  |  |  |  |  |  | B-score functional assay [1, 3]: -0.283; Ranking score [1, 4]: 659.659; B-score binding assay [2, 5]: 0.68
5 | COc1ccc(CC2c3cc(OC)c(OC)cc3CC[N+]2(C)CCC(=O)OCCCCCOC(=O)CC[N+]2(C)CCc3cc(OC)c(OC)cc3C2Cc2ccc(OC)c(OC)c2)cc1OC (stereo not drawn) [Atracurium besylate] |  |  |  | 2.141 | 978.724 | 0.189 | 
6 | CC(=O)OC[C@H]1O[C@@H]([S-])[C@H](OC(C)=O)[C@@H](OC(C)=O)[C@@H]1OC(C)=O.CCP(CC)CC.[Au+] [Auranofin] |  |  |  |  |  |  | B-score functional assay [1, 3]: 0.729; Ranking score [1, 4]: 748.559; B-score binding assay [2, 5]: -0.068
7 | Nc1ncn([C@@H]2O[C@H](CO)[C@@H](O)[C@H]2O)c(=O)n1 [Azacytidine-5] |  |  |  | 0.011 | 847.665 | 1.257 | 
8 | Nc1nc(O)c2[nH]nnc2n1 [Azaguanine-8] |  |  |  | 3.711 | 1120.13 | 0.825 | 
9 | O=C(CCCN1CCN(c2ccccn2)CC1)c1ccc(F)cc1 [Azaperone] |  |  |  | 0.852 | 931.399 | 0.326 | 
10 | CCCC1C(=O)N2C(N(C)C)=Nc3ccc(C)cc3N2C1=O (stereo not drawn) [Azapropazone] |  |  |  |  |  |  | B-score functional assay [1]: -0.788; Ranking score [1]: 190.672; B-score binding assay [2]: -1.852
11 | CN1CCC(=C2c3ccccc3CCc3cccnc32)CC1 [Azatadine maleate] |  |  |  | 0.678 | 1070.86 | 1.844 | 
12 | Cn1cnc([N+](=O)[O-])c1Sc1ncnc2nc[nH]c12 [Azathioprine] |  |  |  | 1.292 | 1083.5 | 1.035 | 
13 | CN1CCCC(n2nc(Cc3ccc(Cl)cc3)c3ccccc3c2=O)CC1 (stereo not drawn) [Azelastine HCl] |  |  |  | 1.435 | 940.553 | 0.157 | 
14 | CC[C@H]1OC(=O)[C@H](C)[C@@H](O[C@H]2C[C@@](C)(OC)[C@@H](O)[C@H](C)O2)[C@H](C)[C@@H](O[C@@H]2O[C@H](C)C[C@H](N(C)C)[C@H]2O)[C@](C)(O)C[C@@H](C)CN(C)[C@H](C)[C@@H](O)[C@]1(C)O [Azithromycin] |  |  |  | 0.119 | 972.082 | 2.513 | 
15 | C[C@H]1[C@H](NC(=O)/C(=N\OC(C)(C)C(=O)O)c2csc(N)n2)C(=O)N1S(=O)(=O)O [Aztreonam] |  |  |  | 1.332 | 1061.36 | 0.858 | 
16 | O=C([O-])CCNC(=O)c1ccc(/N=N/c2ccc(O)c(C(=O)[O-])c2)cc1.[Na+].[Na+] [Balsalazide Sodium] | 403.097 | -0.35 | -0.506 |  |  |  | 
17 | CCOC(=O)[C@H](CCc1ccccc1)N[C@H]1CCc2ccccc2N(CC(=O)O)C1=O [Benazepril HCl] |  |  |  | 1.384 | 918.755 | 0.109 | 
18 | CC(Cc1cccc(C(F)(F)F)c1)NCCOC(=O)c1ccccc1 (stereo not drawn) [Benfluorex] |  |  |  | 0.848 | 1033.89 | 1.025 | 
19 | CCCCOc1cc(C(=O)OCCN(CC)CC)ccc1N [Benoxinate hydrochloride] | 454.623 | 0.537 | -1.11 |  |  |  | 
20 | O=C(CCCN1CCC(n2c(O)nc3ccccc32)CC1)c1ccc(F)cc1 [Benperidol] | 422.659 | 0.351 | -1.201 |  |  |  | 
21 | CC1(C)S[C@@H]2[C@H](NC(=O)Cc3ccccc3)C(=O)N2[C@H]1C(=O)O.CC1(C)S[C@@H]2[C@H](NC(=O)Cc3ccccc3)C(=O)N2[C@H]1C(=O)O.c1ccc(CNCCNCc2ccccc2)cc1 [Benzathine benzylpenicillin] |  |  |  |  |  |  | B-score functional assay [1, 3]: -0.072; Ranking score [1, 4]: 672.134; B-score binding assay [2, 5]: 0.21
22 | CCCCNc1ccc(C(=O)OCCOCCOCCOCCOCCOCCOCCOCCOCCOC)cc1 [Benzonatate] |  |  |  | 0.062 | 933.857 | 2.274 | 

Row | Compound | Ranking score [1, 6] | B-score functional assay [1, 7] | B-score binding assay [2, 8] | B-score functional assay [1, 9] | Ranking score [1, 10] | B-score binding assay [2, 11] | other results
23 | O=C(Oc1cccc2cccnc12)c1ccccc1 [Benzoxiquine] | 381.13 | -0.093 | -0.876 |  |  |  | 
24 | NS(=O)(=O)c1cc2c(cc1Cl)N=C(CSCc1ccccc1)NS2(=O)=O [Benzthiazide] |  |  |  |  |  |  | B-score functional assay [1, 3]: -0.047; Ranking score [1, 4]: 714.84; B-score binding assay [2, 5]: 0.39
25 | CC1(C)S[C@@H]2[C@H](NC(=O)Cc3ccccc3)C(=O)N2[C@H]1C(=O)O [Benzylpenicillin sodium] | 344.346 | -0.043 | -1.247 |  |  |  | 
26 | C[N+](C)(CCOc1ccccc1)Cc1ccccc1.O=C([O-])c1cc2ccccc2cc1O [Bephenium hydroxynaphthoate] | 452.073 | -0.101 | -0.482 |  |  |  | 
27 | CC(C)COCC(CN(Cc1ccccc1)c1ccccc1)N1CCCC1 (stereo not drawn) [Bepridil hydrochloride] | 392.989 | 1.07 | -1.626 |  |  |  | 
28 | Cl.N[C@@H]1CCCCN(c2c(F)cc3c(=O)c(C(=O)O)cn(C4CC4)c3c2Cl)C1 [Besifloxacin hydrochloride] |  |  |  | 1.274 | 1087.71 | 1.112 | 
29 | C[C@H]1C[C@H]2[C@@H]3CCC4=CC(=O)C=C[C@]4(C)[C@@]3(F)[C@@H](O)C[C@]2(C)[C@@]1(O)C(=O)CO [Betamethasone] |  |  |  |  |  |  | B-score functional assay [1, 3]: 0.975; Ranking score [1, 4]: 747.052; B-score binding assay [2, 5]: -0.13
30 | NCCc1cc[nH]n1 [Betazole hydrochloride] |  |  |  |  |  |  | B-score functional assay [1, 3]: 0.019; Ranking score [1, 4]: 836.299; B-score binding assay [2, 5]: 1.024
31 | CC(C[N+](C)(C)C)OC(N)=O (stereo not drawn) [Bethanechol chloride] |  |  |  | 1.898 | 1067.05 | 0.661 | 
32 | CC(C)(Oc1ccc(CCNC(=O)c2ccc(Cl)cc2)cc1)C(=O)O [Bezafibrate] | 430.871 | -1.123 | 0.184 |  |  |  | 
33 | COc1ccccc1Oc1c(NS(=O)(=O)c2ccc(C(C)(C)C)cc2)nc(-c2ncccn2)nc1OCCO [Bosentan] |  |  |  |  |  |  | B-score functional assay [1, 3]: 0.07; Ranking score [1, 4]: 688.78; B-score binding assay [2, 5]: 0.008
34 | CC[N+](C)(C)Cc1ccccc1Br [Bretylium tosylate] | 436.134 | -1.625 | 1.504 |  |  |  | 
35 | Brc1c(NC2=NCCN2)ccc2nccnc12.O=C(O)C(O)C(O)C(=O)O [Brimondine L-Tartrate] | 294.551 | -1.091 | -0.57 |  |  |  | 
36 | CCN[C@H]1CN(CCCOC)S(=O)(=O)c2sc(S(N)(=O)=O)cc21 [Brinzolamide] |  |  |  |  |  |  | B-score functional assay [1, 3]: 0.266; Ranking score [1, 4]: 792.227; B-score binding assay [2, 5]: 0.124
37 | CC(C)C[C@H]1C(=O)N2CCC[C@H]2[C@]2(O)O[C@](NC(=O)[C@@H]3C=C4c5cccc6[nH]c(Br)c(c56)C[C@H]4N(C)C3)(C(C)C)C(=O)N12.CS(=O)(=O)O [Bromocryptine mesylate] | 349.571 | -0.957 | -0.252 |  |  |  | 
38 | CCN(CC)CCNC(=O)c1cc(Br)c(N)cc1OC [Bromopride] |  |  |  | 0.033 | 880.053 | 1.459 | 
39 | O=C(CCCN1CCC(O)(c2ccc(Br)cc2)CC1)c1ccc(F)cc1 [Bromperidol] |  |  |  |  |  |  | B-score functional assay [1, 3]: 0.496; Ranking score [1, 4]: 757.533; B-score binding assay [2, 5]: -0.002
40 | COc1cc(OC)c(C(=O)CCCN2CCCC2)c(OC)c1.Cl [Buflomedil hydrochloride] |  |  |  |  |  |  | B-score functional assay [1, 3]: 2.687; Ranking score [1, 4]: 823.499; B-score binding assay [2, 5]: -0.086
41 | CCCCNc1cc(C(=O)O)cc(S(N)(=O)=O)c1Oc1ccccc1 [Bumetanide] |  |  |  | 0.161 | 907.588 | 1.043 | 
42 | CCCCN(CCCC)CCCOC(=O)c1ccc(N)cc1 [Butacaine] |  |  |  |  |  |  | B-score functional assay [1, 3]: -0.185; Ranking score [1, 4]: 672.37; B-score binding assay [2, 5]: 0.529
43 | C=CCC1(CC(C)C)C(=O)NC(=O)NC1=O [Butalbital] |  |  |  |  |  |  | B-score functional assay [1]: -0.027; Ranking score [1]: 849.583; B-score binding assay [2]: 2.017
